Like-named read-outs stand apart in the source and are kept apart here.
Assays:
[1] = test system: Keratinocytes that maintain HPV 16 episomes; assay: MTT cell viability assay; conditions: MTT assay; FIG. 2B, FIG. 5
Protocol: (§1) Cells were cultured for 5 days in the presence of polyamide; % Cell Viability=(OD590 drug/OD590 control)×100; n=3.
(§2) Solubilisation of the cells by the addition of a detergent results in the liberation of the crystals which are solubilized. The number of surviving cells is directly proportional to the level of the formazan product created. The color can then be quantified using a simple colorimetric assay. The results can be read on a multiwell scanning spectrophotometer (ELISA reader).
(§3) Cell viability was also assessed routinely with the MTT assay.

[2] = test system: HPV 16; assay: HPV 16 episome DNA levels in W12E cells by Q-PCR (Taqman); assay type: cell-based, Human papilloma virus; conditions: for effect on HPV viral DNA: comparison of 1037, distamycin A and cidofovir, FIG. 5; for effect on absolute HPV 16 DNA levels: higher doses, in some experiments, FIG. 3
[3] = test system: HPV18; assay: HPV18 DNA levels in keratinocytes by real-time PCR; assay type: cell-based, Human papilloma virus; conditions: effective (pseudo) IC50
Protocol: (§4) Human keratinocytes, including those maintaining HPV episomes, are cultured on mitomycin C-treated J2 3T3 cells in media containing three parts Dulbecco's modified Eagle medium (DMEM) and one part F12 media, our modification of published methods (Rheinwald and Green, 1975). Media (E Media) is supplemented with 0.4 μg/mL hydrocortisone, 10 ng/mL cholera toxin, 5 μg/mL insulin, 24 μg/mL adenine, 5 μg/mL transferrin, […] (T3), 10 ng/mL epidermal growth factor (EGF), 1% penicillin-streptomycin, and 5% fetal bovine serum (FBS). All cells are passaged at 70% confluency at a split ratio of 1:5.
(§5) Polyamides for HPV 18 are dissolved at 10 mM in 100% DMSO and diluted with H2O to 1 mM. Polyamides are added to cells in E media at final concentrations of 0.1-10 μM, with final DMSO concentrations of 0.1%. As controls, cells are incubated with normal E media and E media containing the “vehicle” 0.1% DMSO. The HPV DNA levels are then quantified according to previously published procedures (Garner-Hamrick and Fisher, Virology, 301, 334-41, 2002). After incubation, cells are harvested from the plates by either trypsinization or direct lysis with proteinase K digestion buffer (PK buffer: 100 mM NaCl, 10 mM Tris pH 8, 25 mM EDTA, 0.5% SDS, 0.1 mg/mL proteinase K). Trypsinized cells are counted on a hemocytometer and pelleted by centrifugation. Episomal HPV is isolated by the Hirt method (Hirt, 1967) and cell pellets are lysed in 0.6% SDS with 10 mM EDTA. NaCl is next added to a final concentration of 1 M. Following an overnight incubation at 4° C., precipitates containing the chromosomal DNA are spun down and episomal DNA precipitated by the addition of isopropanol. Cells lysed directly in PK buffer are transferred to microfuge tubes and incubated at 50° C. for 2 h. Lysates are then extracted with phenol/chloroform/isoamyl alcohol and spun through a phase lock gel (Eppendorf, Hamburg, Germany). Total DNA is then precipitated with 0.3 M NaOAc and 2.5 vol. ethanol and resuspended in Tris-EDTA (TE) buffer.
Viral DNA levels are next quantified according to variations on our previously published methods (Garner-Hamrick and Fisher, Virology, 301, 334-41, 2002). Quantitative PCR is performed using Real-Time PCR technology on an ABI PRISM 7700 Sequence Detector. All primers and probes were designed using Primer Express 1.0 (ABI). For HPV 18, PCR primer-probe sets were designed within the L1 gene:
(§6) All primers and probes are synthesized and HPLC purified by Applied Biosystems (Foster City, Calif.). The HPV probes are labeled with the 5′ reporter dye FAM (6-carboxy-fluorescein) and the 3′ quencher dye TAMRA (6-carboxytetramethyl-rhodamine). A standard curve is generated using a range of 10^8 to 10 copies/reaction of cloned, genomic HPV31 or HPV18 DNA using the following formula: (1.82×10^15)(μg/μL stock DNA)/(length in base pairs)(2)=copies/μL stock DNA. PCR reactions contain final concentrations of 1× Universal Master Mix (PE Applied Biosystems), 200 nM of each primer, and 250 nM probe (PE Applied Biosystems) in a reaction volume of 25 μL. Each Hirt-isolated DNA sample is analyzed in triplicate reactions for episomal HPV. Copies/reaction are determined from the standard curve, and copies/cell determined according to the following formula: (copies/reaction)×(DNA dilution)/(total # cells)=copies/cell.

[4] = test system: HPV31; assay: HPV31 DNA levels in keratinocytes by real-time PCR; assay type: cell-based, Human papilloma virus; conditions: effective (pseudo) IC50
Protocol: as §4, §5
HPV31 primers-probe sets for PCR were also designed within the L1 gene:
as §6

[5] = Membrane integrity / modified propidium iodide procedure; assay type: cell-based; conditions: rat, membrane integrity assay, read-out: TC50
Protocol: (§7) Toxicity testing has been carried out for 3 separate polyamides. Two different Rat hepatoma assays were used because they are industry standards for predicting in vivo toxicity. The assays for ATP and membrane integrity assays are described in detail below. Thus, rat hepatoma cells (H4IIE) were seeded into 96-well plates and cultured in medium containing 20% bovine serum. Following an equilibration period of 48 hr, the cells were treated with the test compounds at various concentrations for 24 hr at 37° C. in 5% CO2. Polyamide compounds were tested for toxicity in the two separate assays. A TC50 (concentration needed to kill half of the cells) was not achieved for any polyamides tested over the wide concentration range explored.
A modified propidium iodide (PI) procedure was used to assess cell proliferation/viability. This specific nucleic acid binding dye fluoresces when intercalated within the nucleic acids. The […] enhances PI fluorescence approximately 20 times while the excitation maxima are shifted 30-40 ηm. During method development experiments, it was determined that Triton-X-100 was the best solution to permeabilize the H4IIE cells thereby allowing the PI access to intracellular RNA and DNA. Fluorescence was measured using a Packard Fusion plate reader at 540 ηm excitation and 610 nm emission.

[6] = MTT cell viability assay; conditions: human, keratinocytes that maintain HPV 16 episomes
Protocol: as §1, §2, §3

[7] = test system: HPV episomal DNA; assay: Southern blot of HPV episomal DNA; assay type: cell-based, Human papilloma virus; conditions: 1 μM and 10 μM; FIG. 4
Protocol: Several alternative approaches have been used to confirm the effects of our compounds on viral DNA. […] DMSO is the vehicle control; HPV DNA indicates the linearized HPV DNA used to generate the hybridization probe via random primed labeling with DIG-dUTP (Roche); following hybridization, blot was incubated with anti-DIG-AP conjugate and HPV DNA detected using ECF substrate (Amersham) and Storm phosphorimager. […] Other NV compounds have similarly shown the expected decrease in viral DNA by Southern blotting.

[8] = test system: rat hepatoma cells (H4IIE); assay type: cell-based
Protocol: as §7

[9] = test system: HPV 16; assay: HPV 16 episome DNA levels in W12E cells by Q-PCR (Taqman); assay type: cell-based, Human papilloma virus; conditions: 10 μM, drug washed out on day 17, sub-cultured without drug for 2 weeks; FIG. 7
[10] = effective (pseudo) IC50, 50% reduction in HPV DNA relative to vehicle (0.1% DMSO), read-out: HPV-16 IC50

Cn1cc(NC(=O)c2cc(NC(=O)c3cc(NC=O)cn3C)cn2C)cc1C(=O)NCCC(=N)N [distamycin A, reference compound]
effect on cell viability [1]: also affect cell viability | effect on HPV viral DNA [2]: only effective against HPV DNA at high concentrations

CN(CCCN)CCCNC(=O)CCNC(=O)c1cc(NC(=O)c2cc(NC(=O)c3cc(NC(=O)CCNC(=O)c4cc(NC(=O)c5cc(NC(=O)c6cc(NC(=O)CCNC(=O)c7cc(NC(=O)c8cc(NC(=O)[C@H](N)CCNC(=O)c9cc(NC(=O)c%10cc(NC(=O)CCNC(=O)c%11cc(NC(=O)c%12nc(NC(=O)c%13cc(NC(=O)CCNC(=O)c%14cc(NC(=O)c%15cc(NC(=O)c%16nccn%16C)cn%15C)cn%14C)cn%13C)cn%12C)cn%11C)cn%10C)cn9C)cn8C)cn7C)cn6C)cn5C)cn4C)cn3C)cn2C)cn1C [Polyamide 1037, ImPPβPIPβPPγNH2PPβPPPβPPPβTa]
IC50 [3]: ≤ 0.1 µM | effect on cell viability [1]: little impact on cell viability | IC50 [4]: ≤ 0.1 µM | effect on HPV viral DNA [2]: dramatic reduction of viral DNA levels | IC50 [2, 10]: 0.1 to 1 µM | effect on absolute HPV 16 DNA levels [2]: nearly complete elimination of detectable viral DNA

CC[C@@]1(O)C(=O)OCc2c1cc1n(c2=O)Cc2cc3ccccc3nc2-1 [camptothecin]
CC50 at 24 h ([5]; H4IIE rat hepatoma cells): 5 µM

CN(CCCN)CCCNC(=O)CCNC(=O)c1cc(NC(=O)c2cc(NC(=O)c3cc(NC(=O)CCNC(=O)c4cc(NC(=O)c5cc(NC(=O)c6cc(NC(=O)CCNC(=O)c7cc(NC(=O)c8cc(NC(=O)[C@@H](CCN)NC(=O)c9cc(NC(=O)c%10cc(NC(=O)CCNC(=O)c%11nc(NC(=O)c%12cc(NC(=O)c%13cc(NC(=O)CCNC(=O)c%14cc(NC(=O)c%15cc(NC(=O)c%16nccn%16C)cn%15C)cn%14C)cn%13C)cn%12C)cn%11C)cn%10C)cn9C)cn8C)cn7C)cn6C)cn5C)cn4C)cn3C)cn2C)cn1C [Polyamide 1049, ImPPβPPIβPPγNH2PPβPPPβPPPβTa]
IC50 [3]: 0.1 to 1 µM | IC50 [4]: ≥ 1 µM | IC50 [2, 10]: 0.1 to 1 µM

Nc1ccn(C[C@@H](CO)OCP(=O)(O)O)c(=O)n1 [Cidofovir, reference compound]
effect on cell viability [1]: also affect cell viability | CC50 [6]: 750 µM | loss of total HPV DNA content ([2]; 72 hours, only at very high concentrations, FIG. 1): approximately 40% | selectivity index (SI: ratio of IC50 to TD50) ([2]; cell culture): 2.5 | effect on HPV viral DNA [2]: only effective against HPV DNA at high concentrations

C=C(C)[C@H]1Cc2c(ccc3c2O[C@@H]2COc4cc(OC)c(OC)cc4[C@@H]2C3=O)O1 [rotenone]
CC50 at 24 h [5]: 0.49 µM

CN(CCCN)CCCNC(=O)CCNC(=O)c1cc(NC(=O)c2cc(NC(=O)c3cc(NC(=O)CCNC(=O)c4cc(NC(=O)c5cc(NC(=O)c6cc(NC(=O)[C@H](N)CCNC(=O)c7cc(NC(=O)c8cc(NC(=O)c9cc(NC(=O)CCNC(=O)c%10cc(NC(=O)c%11cc(NC(=O)c%12nccn%12C)cn%11C)cn%10C)cn9C)cn8C)cn7C)cn6C)cn5C)cn4C)cn3C)cn2C)cn1C [Polyamide 1020, ImPPβPPPγNH2PPPβPPPβTa]
episomal DNA content by Southern blot [7]: expected decrease in episomal DNA content | IC50 [4]: 0.1 to 1 µM | IC50 [2, 10]: > 1 µM

ImPPPβPPβPPPγNH2PPPβPPPβPPPβDp [Polyamide 1003]
IC50 [3]: 0.1 to 1 µM | IC50 [4]: 0.1 to 1 µM | IC50 [2, 10]: 0.1 to 1 µM

CN(CCCN)CCCNC(=O)CCNC(=O)c1cc(NC(=O)c2cc(NC(=O)c3cc(NC(=O)c4cc(NC(=O)CCNC(=O)c5cc(NC(=O)c6cc(NC(=O)CCCNC(=O)c7cc(NC(=O)c8cc(NC(=O)c9cc(NC(=O)CCNC(=O)c%10cc(NC(=O)c%11cc(NC(=O)c%12nccn%12C)cn%11C)cn%10C)cn9C)cn8C)cn7C)cn6C)cn5C)cn4C)cn3C)cn2C)cn1C [Polyamide 1028, ImPPβPPPγPPβPPPPβTa]
IC50 [3]: 0.1 to 1 µM | CC50 [8]: > 300 µM | IC50 [4]: 0.1 to 1 µM | HPV 16 episomal DNA rebound after withdrawal [9]: recovery does not approach control levels for at least two weeks | HPV episomes by QPCR ([2]; concentrations as low as 5 μM): undetectable levels | IC50 [2, 10]: 0.1 to 1 µM | effect on absolute HPV 16 DNA levels [2]: nearly complete elimination of detectable viral DNA | IC50 ([2]; read-out: IC50 against HPV 16): 0.1 µM

CN(CCCN)CCCNC(=O)CCNC(=O)c1cc(NC(=O)c2cc(NC(=O)c3cc(NC(=O)c4cc(NC(=O)CCNC(=O)c5cc(NC(=O)c6cc(NC(=O)[C@H](N)CCNC(=O)c7cc(NC(=O)c8cc(NC(=O)c9cc(NC(=O)CCNC(=O)c%10cc(NC(=O)c%11cc(NC(=O)c%12nccn%12C)cn%11C)cn%10C)cn9C)cn8C)cn7C)cn6C)cn5C)cn4C)cn3C)cn2C)cn1C [Polyamide 1030, ImPPβPPPγNH2PPβPPPPβTa]
IC50 [3]: 0.1 to 1 µM | IC50 [4]: 0.1 to 1 µM | IC50 [2, 10]: 0.1 to 1 µM

Reference: patent US9290551B2, “Compounds for treating papilloma virus infection” (NanoVir, LLC, priority 2012, dated 2016)
